Results on five molecules are retold here after patent US11000708B2 (priority 2015, dated 2021).

Read-outs that look alike come from different tables or passages of the source.

For experiment [1], the system named is Mycobacterium tuberculosis. Conditions: against Mycobacterium tuberculosis; reported domestically; cited from earlier work.
Experiment [2] relates to M. tuberculosis H37Rv (ATCC 27294). Conditions: reported abroad; cited from earlier work.
The subject of experiment [3] is sensitive Mycobacterium tuberculosis. As to conditions: reported domestically; cited from earlier work.
The next experiment has as its system drug-resistant bacteria. Conditions: reported domestically; cited from earlier work.
Experiment [4] deals with Mycobacterium tuberculosis standard strains H37Rv. Conditions: quality control H37Rv.

Take `CC[C@H]1OC(=O)[C@H](C)[C@@H](O[C@H]2C[C@@](C)(OC)[C@@H](O)[C@H](C)O2)[C@H](C)[C@@H](O[C@@H]2O[C@H](C)C[C@H](N(C)C)[C@H]2O)[C@](C)(O)C[C@@H](C)CN(C)[C@H](C)[C@@H](O)[C@]1(C)O` [azithromycin]: the results for the MIC in experiment [1] and in experiment [2] were 128 micrograms/milliliter and 95 micrograms/milliliter, respectively.

With `CC[C@H]1OC(=O)[C@H](C)[C@@H](O[C@H]2C[C@@](C)(OC)[C@@H](O)[C@H](C)O2)[C@H](C)[C@@H](O[C@@H]2O[C@H](C)C[C@H](N(C)C)[C@H]2O)[C@](C)(OC)C[C@@H](C)C(=O)[C@H](C)[C@@H](O)[C@]1(C)O` [clarithromycin], the MIC is on record as 0.25-2.0 micrograms/milliliter in experiment [3], 2.0-32 micrograms/milliliter in the experiment on drug-resistant bacteria and 6 micrograms/milliliter in experiment [2].

For `CC[C@H]1OC(=O)[C@H](C)[C@@H](O[C@H]2C[C@@](C)(OC)[C@@H](O)[C@H](C)O2)[C@H](C)[C@@H](O[C@@H]2O[C@H](C)C[C@H](N(C)C)[C@H]2O)[C@](C)(O)C[C@@H](C)/C(=N\OCOCCOC)[C@H](C)[C@@H](O)[C@]1(C)O` [roxithromycin], in experiment [2], the MIC entry is recorded as “greater than or equal to 64 micrograms/milliliter”.

Regarding `CC[C@H]1OC(=O)C[C@@H](O)[C@H](C)[C@@H](O[C@@H]2O[C@H](C)[C@@H](O[C@H]3C[C@@](C)(O)[C@@H](O)[C@H](C)O3)[C@H](N(C)C)[C@H]2O)[C@@H](CC=O)C[C@@H](C)C(=O)/C=C/C(C)=C/[C@@H]1CO[C@@H]1O[C@H](C)[C@@H](O)[C@@H](OC)[C@H]1OC` [tylosin], the MIC in experiment [2] is reported as 58.6 micrograms/milliliter.

Turning to carrimycin, the “growth of bacterial colonies on drug-containing culture medium” value is 4+ (positive (4+) if the bacterial colonies closely grow on the slant face of the culture medium and account for ¾ or more of the area of the slant face) in experiment [4] (carrimycin 1 μg/ml); “−” in experiment [4] (carrimycin 20 μg/ml).
